# Literature values as cited in PubChem BioAssay AID1259409 (Chemical Carcinogenesis Research Information System (CCRIS), 2018).
# System: rodent chemically induced tumor inhibition, incidence and multiplicity
# Test: CCRIS tumor inhibitor studies
# Conditions: for tumour outcome (control, treated, inhibition, significance): Species: RAT
smiles,measurement,setting,value
C[S+](CC[C@H](N)C(=O)[O-])C[C@H]1O[C@@H](n2cnc3c(N)ncnc32)[C@H](O)[C@@H]1O (stereo not given in full),"tumour outcome (control, treated, inhibition, significance)","Carcinogen: 1,2-DIMETHYLHYDRAZINE, 540-73-8, Dose [Inhibitor]: 0, 96 UMOL/KG 4/D FOR 32 WK BEGINNING 1 WK POST CARCINOGEN DOSE (STUDY DURATION: 33 WK), Route [Inhibitor]: INTRAMUSCULAR, Strain/Sex: F344/MALE, Target Tissue: Type of Lesion: LIVER: HEPATOCELLULAR CARCINOMA, Dose [Carcinogen]: 100 MG/KG ONCE 18 HR AFTER RATS WERE SUBJECTED TO TWO-THIRDS HEPATECTOMY, Promoter: OROTIC ACID, 65-86-1","6/16 (38%), 1/24 (4%), 89%, not calculated"
same,"tumour outcome (control, treated, inhibition, significance)","Carcinogen: DIETHYLNITROSAMINE, 55-18-5, N-ACETYLAMINOFLUORENE, 53-96-3, Carcinogen: DIETHYLNITROSAMINE, 55-18-5, N-ACETYLAMINOFLUORENE, 53-96-3, Dose [Inhibitor]: 0, 64 UMOL/KG 6/D FOR 24 WK BEGINNING POST CARCINOGEN TREATMENT (STUDY DURATION: 28 MO), Route [Inhibitor]: INTRAMUSCULAR, Strain/Sex: WISTAR/MALE, Target Tissue: Type of Lesion: LIVER: CARCINOMA, Dose [Carcinogen]: 150 MG/KG DEN ONCE THEN 2 WK LATER 0.03% AAF IN DIET FOR 2 WK WITH A PARTIAL HEPATECTOMY PERFORMED MIDWAY THROUGH CARCIN, Promoter: PHENOBARBITAL, 50-06-6","10/10 (100%), 3/11 (27%), 73%, p<0.025"
O=C(O)CC(O)(CC(=O)O)C(=O)O,"tumour outcome (control, treated, inhibition, significance)","Carcinogen: N-BUTYL-N-(4-HYDROXYBUTYL)NITROSAMINE, 3817-11-6, Dose [Inhibitor]: 4.85% IN BASAL DIET ADMINISTERED SIMULTANEOUSLY WITH CARCINOGEN DOSE FOR 20 WK (STUDY DURATION: 20 WK), Route [Inhibitor]: ORAL, Strain/Sex: F344/MALE, Target Tissue: Type of Lesion: BLADDER: CARCINOMA, Dose [Carcinogen]: 0.025% IN DRINKING WATER FOR 20 WK, Promoter: NONE USED","3/15 (20%), 3/15 (20%), 0%, not significant"
same,"tumour outcome (control, treated, inhibition, significance)","Carcinogen: N-BUTYL-N-(4-HYDROXYBUTYL)NITROSAMINE, 3817-11-6, Dose [Inhibitor]: 4.85% IN BASAL DIET ADMINISTERED SIMULTANEOUSLY WITH CARCINOGEN DOSE FOR 20 WK (STUDY DURATION: 20 WK), Route [Inhibitor]: ORAL, Strain/Sex: F344/MALE, Target Tissue: Type of Lesion: BLADDER: PAPILLOMA, Dose [Carcinogen]: 0.025% IN DRINKING WATER FOR 20 WK (FOR A TOTAL INTAKE OF 4.1 MMOL/RAT), Promoter: NONE USED","4/15 (27%), 2/15 (13%), 50%, not significant"
same,"tumour outcome (control, treated, inhibition, significance)","Carcinogen: N-BUTYL-N-(4-HYDROXYBUTYL)NITROSAMINE, 3817-11-6, Dose [Inhibitor]: 6.50% IN BASAL DIET ADMINISTERED SIMULTANEOUSLY WITH CARCINOGEN DOSE FOR 20 WK (STUDY DURATION: 20 WK), Route [Inhibitor]: ORAL, Strain/Sex: F344/MALE, Target Tissue: Type of Lesion: BLADDER: CARCINOMA, Dose [Carcinogen]: 0.025% IN DRINKING WATER FOR 20 WK, Promoter: NONE USED","3/15 (20%), 12/15 (80%), -300%, p<0.01"
same,"tumour outcome (control, treated, inhibition, significance)","Carcinogen: N-BUTYL-N-(4-HYDROXYBUTYL)NITROSAMINE, 3817-11-6, Dose [Inhibitor]: 6.50% IN BASAL DIET ADMINISTERED SIMULTANEOUSLY WITH CARCINOGEN DOSE FOR 20 WK (STUDY DURATION: 20 WK), Route [Inhibitor]: ORAL, Strain/Sex: F344/MALE, Target Tissue: Type of Lesion: BLADDER: PAPILLOMA, Dose [Carcinogen]: 0.025% IN DRINKING WATER FOR 20 WK (FOR A TOTAL INTAKE OF 6.8 MMOL/RAT), Promoter: NONE USED","4/15 (27%), 3/15 (20%), 25%, not significant"
same,"tumour outcome (control, treated, inhibition, significance)","Carcinogen: N-ETHYL-N-(4-HYDROXYBUTYL)NITROSAMINE, 54897-62-0, Dose [Inhibitor]: 4.85% IN BASAL DIET ADMINISTERED SIMULTANEOUSLY WITH CARCINOGEN DOSE FOR 20 WK (STUDY DURATION: 20 WK), Route [Inhibitor]: ORAL, Strain/Sex: F344/MALE, Target Tissue: Type of Lesion: BLADDER: CARCINOMA, Dose [Carcinogen]: 0.021% IN DRINKING WATER FOR 20 WK, Promoter: NONE USED","13/15 (87%), 14/15 (93%), -8%, not significant"
same,"tumour outcome (control, treated, inhibition, significance)","Carcinogen: N-ETHYL-N-(4-HYDROXYBUTYL)NITROSAMINE, 54897-62-0, Dose [Inhibitor]: 4.85% IN BASAL DIET ADMINISTERED SIMULTANEOUSLY WITH CARCINOGEN DOSE FOR 20 WK (STUDY DURATION: 20 WK), Route [Inhibitor]: ORAL, Strain/Sex: F344/MALE, Target Tissue: Type of Lesion: BLADDER: PAPILLOMA, Dose [Carcinogen]: 0.021% IN DRINKING WATER FOR 20 WK, Promoter: NONE USED","14/15 (93%), 13/15 (87%), 7%, not significant"
same,"tumour outcome (control, treated, inhibition, significance)","Carcinogen: N-ETHYL-N-(4-HYDROXYBUTYL)NITROSAMINE, 54897-62-0, Dose [Inhibitor]: 6.50% IN BASAL DIET ADMINISTERED SIMULTANEOUSLY WITH CARCINOGEN DOSE FOR 20 WK (STUDY DURATION: 20 WK), Route [Inhibitor]: ORAL, Strain/Sex: F344/MALE, Target Tissue: Type of Lesion: BLADDER: CARCINOMA, Dose [Carcinogen]: 0.021% IN DRINKING WATER FOR 20 WK, Promoter: NONE USED","13/15 (87%), 15/15 (100%), -15%, not significant"
same,"tumour outcome (control, treated, inhibition, significance)","Carcinogen: N-ETHYL-N-(4-HYDROXYBUTYL)NITROSAMINE, 54897-62-0, Dose [Inhibitor]: 6.50% IN BASAL DIET ADMINISTERED SIMULTANEOUSLY WITH CARCINOGEN DOSE FOR 20 WK (STUDY DURATION: 20 WK), Route [Inhibitor]: ORAL, Strain/Sex: F344/MALE, Target Tissue: Type of Lesion: BLADDER: PAPILLOMA, Dose [Carcinogen]: 0.021% IN DRINKING WATER FOR 20 WK, Promoter: NONE USED","14/15 (93%), 13/15 (87%), 7%, not significant"
same,"tumour outcome (control, treated, inhibition, significance)","Carcinogen: N-ETHYL-N-HYDROXYETHYLNITROSAMINE, 13147-25-6, Dose [Inhibitor]: 0, 5% IN DIET OF UNILATERALLY NEPHRECTOMIZED RATS BEGINNING POST CARCINOGEN TREATMENT AND CONTINUING FOR 18 WK (STUDY DU, Route [Inhibitor]: ORAL, Strain/Sex: WISTAR/MALE, Target Tissue: Type of Lesion: KIDNEY: RENAL CELL TUMOR, Dose [Carcinogen]: 1000 PPM IN DIET FOR 2 WK, Promoter: POTASSIUM DIBASIC PHOSPHATE, 7758-11-4","15/15 (100%), 4/14 (29%), 71%, p<0.05"
COc1c2occc2cc2ccc(=O)oc12,outcome,"Carcinogen: 4-(N-methyl-N-nitrosamino)-1-(3-pyridyl)-1-butanone, 64091-91-4, Dose [Inhibitor]: 0, 1, 10, 100 ppm in diet for 3 d beginning at 7 wks of age, tumors collected 16 wk after treatment, Route [Inhibitor]: Oral, Species: Mouse, Strain/Sex: A/J/Female, Target Tissue: Type of Lesion: Lung: Adenomas, Dose [Carcinogen]: Single dose of 2 mg 3 days after first inhibitor treatment (Test material solvent: saline), Promoter: None","12/20 (75%), 17/20 (95%), 14/20 (70%), 10/20 (50%), p<0.001"
NCC[Se][Se]CCN,"tumour outcome (control, treated, inhibition, significance)","Carcinogen: 7,12-DIMETHYLBENZ[A]ANTHRACENE, 57-97-6, Dose [Inhibitor]: 0, 0.000025 MOL/KG DIET BEGINNING 2 WK PRIOR TO CARCINOGEN AND CONTINUED FOR STUDY DURATION (STUDY DURATION: 25 WK), Route [Inhibitor]: ORAL, Strain/Sex: CD-1/FEMALE, Target Tissue: Type of Lesion: MAMMARY GLAND: ADENOCARCINOMA, Dose [Carcinogen]: 10 MG ONCE, Promoter: NONE USED","18/25 (72%), 14/25 (56%), 22%, not significant"
same,"tumour outcome (control, treated, inhibition, significance)","Carcinogen: 7,12-DIMETHYLBENZ[A]ANTHRACENE, 57-97-6, Dose [Inhibitor]: 0, 0.00004 MOL/KG DIET BEGINNING 2 WK PRIOR TO CARCINOGEN AND CONTINUED FOR STUDY DURATION (STUDY DURATION: 25 WK), Route [Inhibitor]: ORAL, Strain/Sex: CD-1/FEMALE, Target Tissue: Type of Lesion: MAMMARY GLAND: ADENOCARCINOMA, Dose [Carcinogen]: 10 MG ONCE, Promoter: NONE USED","18/25 (72%), 11/25 (44%), 39%, p<0.05"
CSCC[C@H](NC(=O)[C@@H](N)Cc1c[nH]c2ccccc12)C(=O)N[C@@H](CC(=O)O)C(=O)N[C@@H](Cc1ccccc1)C(N)=O,"tumour outcome (control, treated, inhibition, significance)","Carcinogen: N-METHYL-N'-NITRO-N-NITROSOGUANIDINE, 70-25-7, Dose [Inhibitor]: 1 MG/KG BW IN DEPOT FORM 1/2 D BEGINNING 1 WK POST LAST CARCINOGEN DOSE FOR DURATION OF STUDY (STUDY DURATION: 52 WK), Route [Inhibitor]: SUBCUTANEOUS, Strain/Sex: WISTAR/MALE, Target Tissue: Type of Lesion: STOMACH: ADENOCARCINOMA, Dose [Carcinogen]: 50 UG/ML IN DRINKING WATER FOR 25 WK, Promoter: NONE USED","12/19 (63%), 6/19 (32%), 49%, p<0.05"
